# Laboratory results: PMC12668308, “A Novel Antimalarial Agent that Inhibits Protein Synthesis in Plasmodium falciparum” (Angewandte Chemie (International Ed. in English), 2025)
# Several values for one entry are separate records, joined by “and”; a condition that tells them apart may be missing. Identical values can stand only once.
# Tests used:
# [1] = Metabolic stability in liver S9 fractions; format: in vitro ADME; conditions: pooled mouse liver S9 fraction; 1 μM compound, 1 mg/mL pooled mouse liver S9, 37 °C; read-out: t1/2 Mouse Liver S9
# Experimental: To evaluate phase I and phase II metabolic stability, the compound (1 μM) was incubated at 37 °C for 240 min with 1 mg/mL pooled mouse liver S9 fraction (Xenotech, Kansas City, USA), 2 mM NADPH, 1 mM UDPGA, 10 mM MgCl2, 5 mM GSH and 0.1 mM PAPS. Metabolic stability of reference compounds: testosterone, verapamil and ketoconazole was determined in parallel to confirm the enzymatic activity of mouse S9 fractions. At defined time points, the incubation was stopped by precipitation of aliquots of S9 enzymes with 2 volumes of cold acetonitrile containing internal standard (150 nM diphenhydramine or 15 nM for Altis Plus measurements). Samples were kept on ice until the end of the incubation, after which precipitated protein was removed by centrifugation (15 min, 4 °C, 4,000 g).
# Dd2b2^pfmdr1 K1065N = format: cell-based, Plasmodium falciparum; conditions: Dd2b2^pfmdr1 K1065N vs Dd2b2^WT
# Experimental: ^[a] 72-h [^3H] hypoxanthhine incorporation assay; Data is expressed as mean±s.d. The assay was performed in three independent biological experiments, each in biological duplicates
# (§1) P. falciparum asexual blood stage parasites were cultured in human red blood cells (RBC, Blutspende SRK, Zurich) at a hematocrit of 5% in RPMI 1640 medium. The RPMI 1640 medium (ThermoFisher Scientific #51800−043) was supplemented with the following: 24 mM NaHCO3 (pH 7.3, Sigma-Aldrich #31437−500G-R), 25 mM Hepes (Sigma-Aldrich #H4034−500G), 0.36 mM hypoxanthine (Sigma-Aldrich # H9377−25G), 100 µg mL^-1 neomycin (Sigma-Aldrich #N6386−100G) and 0.5% Albumax II (Thermo Fisher #11021−045). Additionally, 2 mM choline chloride (279 mg/L, Sigma-Aldrich #C7527−100G) was added to the culture to block the induction of sexual commitment as described. ^[31^] The RPMI 1640 medium and components were dissolved in water (Milli-Q purified), stirred for at least 3 h, and then sterile filtered (0.22 μm pore size) with a bottle top filter (Corning # 431118). Parasite cultures were maintained in an atmosphere of 3% O2, 4% CO2, and 93% N2 in air-tight chambers at 37 °C. The [^3H]-hypoxanthine incorporation assay was used to test compound activity in the specific parasite lines as described.^[32^] Briefly, compounds were dissolved in DMSO (10 mM) and diluted in a hypoxanthine-free culture medium. A limiting dilution was performed over a 64-fold range (6-step twofold dilution) in a 96-well plate in duplicates. For every starting concentration, a limiting dilution was performed over a 64-fold range (6-step twofold dilution) in a 96-well plate in two biological duplicates. Parasites were added at 100 µL to each well containing the compound to obtain a final parasitemia of 0.3% and haematocrit of 1.25%. The plates were incubated for 48 h before 0.25 µCi of [^3H]-hypoxanthine was added per well for an additional 24 h. Parasites were harvested on a glass-fiber filter with a Microbeta FilterMate cell harvester (Perkin Elmer, Waltham, USA) and radioactivity was counted using a MicroBeta2 liquid scintillation counter (Perkin Elmer, Waltham, US). The results were recorded, processed by subtraction of the mean background signal obtained from the uninfected RBC controls and expressed as percentage of untreated controls. The fifty percent inhibitory concentration (IC50) was calculated by using nonlinear, four parameter (variable slope) curve fitting as described ^[33^] after importing into GraphPad Prism (version 8.3.0).
# 3D7^Cas9 pfmdr1 G182S = format: cell-based, Plasmodium falciparum; conditions: 3D7^Cas9 pfmdr1 G182S vs 3D7^WT
# Experimental: ^[a] 72-h [^3H] hypoxanthhine incorporation assay; Data is expressed as mean±s.d.. The assay was performed in three independent biological experiments, each in biological duplicates.
# as §1
# The P. falciparum 3D7 wild type parasites in the ring stage were transfected as described.^[20] Infected RBCs collected from a 5 ml culture of synchronous ring stage parasites (5-6% parasitemia at ) were added to 250 µl of packed RBCs and were co-transfected with 50µg of Cas9 and 50 µg of donor plasmids using a Bio-Rad Gene Pulser Xcell Electroporation System (single exponential pulse, 310 V, 250 µF). 24 hours post-transfection, 5 nM WR99210 (MedChemExpress #HY-116387) was added to the culture medium for six days to select for gene-edited parasites, and henceforth parasites were maintained in normal culture medium until a stably propagating parasite population was obtained. After ~4 weeks post-transfection, stably propagating parasite population were obtained. The transgenic parasite line (3D7^pfmdr1 G182S) was cloned out using an established plaque assays via limiting dilution.^[35^] […]
structure (smiles),measurement,setting,value
"CN1CCN(Cc2ccc(O)c(NC(=O)c3cccc(Oc4cc(C(F)(F)F)ccn4)c3)c2)CC1 [Compound 31, N-(2-hydroxy-5-((4-methylpiperazin-1-yl)methyl)phenyl)-3-((4-(trifluoromethyl)pyridin-2-yl)oxy)benzamide]",half-life at 1 µM,[1],42.7 ± 3.7 min
same,IC50 fold shift relative to parental clone,Dd2b2^pfmdr1 K1065N,20.2
same,IC50 fold shift relative to 3D7^WT strain,3D7^Cas9 pfmdr1 G182S,7 and 6.6
